The structures appear in SMILES notation. Non-standard residues stand in square brackets, D forms with d. Residues, ends and D or L forms follow the SMILES beside them. Hyp = O=C(O)[C@@H]1C[C@@H](O)CN1; NMeD = CN[C@@H](CC(=O)O)C(=O)O; NMeL = CN[C@@H](CC(C)C)C(=O)O; βAla = NCCC(=O)O; Sar = CNCC(=O)O A value given as a limit tells only on which side of the number the result lay.
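Further: amino acid uptake through Gap1 in nitrogen-starved wild-type yeast cells, measured after 60 s and expressed relative to L-citrulline.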

In the assay the target is T1, General amino-acid permease GAP1 (Saccharomyces cerevisiae) (UniProt P19145).
T1 sequence (whole entry): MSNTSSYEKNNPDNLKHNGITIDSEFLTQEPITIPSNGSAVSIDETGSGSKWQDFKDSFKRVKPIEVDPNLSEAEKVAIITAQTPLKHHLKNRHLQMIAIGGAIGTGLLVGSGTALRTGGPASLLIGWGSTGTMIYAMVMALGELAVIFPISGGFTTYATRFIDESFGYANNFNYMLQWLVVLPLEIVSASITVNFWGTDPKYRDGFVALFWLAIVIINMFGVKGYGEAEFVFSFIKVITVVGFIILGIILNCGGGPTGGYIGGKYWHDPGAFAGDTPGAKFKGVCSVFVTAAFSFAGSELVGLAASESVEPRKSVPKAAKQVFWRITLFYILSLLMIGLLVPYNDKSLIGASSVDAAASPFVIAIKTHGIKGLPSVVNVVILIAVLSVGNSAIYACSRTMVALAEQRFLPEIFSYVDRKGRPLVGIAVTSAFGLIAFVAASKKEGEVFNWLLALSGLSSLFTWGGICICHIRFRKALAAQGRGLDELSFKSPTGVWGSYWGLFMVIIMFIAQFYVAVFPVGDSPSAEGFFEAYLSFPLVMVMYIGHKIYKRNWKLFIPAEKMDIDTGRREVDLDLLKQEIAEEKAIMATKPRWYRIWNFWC
Conditions: sigma1278b, at 5 mM.
Description: Inhibition of nitrogen-starved wild type sigma1278b yeast Gap1-mediated amino acid uptake at 5 mM after 60 secs relative to L-citrulline
With `CC(C)[C@H](N)C(=O)N[C@H](C(=O)O)C(C)C` (H-Val-Val-OH), the inhibition (as a rule, the relative decrease from the control value, in per cent) was determined as 15%.

Molecule `N[C@@H](CS)C(=O)NCC(=O)O` had an inhibition of under 15%.

`CSCC[C@H](NC(=O)CN)C(=O)O` came in with an inhibition of under 15%.

The molecule `C[C@H](NC(=O)CNC(=O)CN)C(=O)O` had an inhibition of under 15%.

As for `CSCC[C@H](N)C(=O)NCC(=O)NCC(=O)O` (H-Met-Gly-Gly-OH), the inhibition is under 15%.

Consider `CC[C@H](C)[C@H](NC(C)=O)C(=O)O`, for which the inhibition was under 15%.

For `CC[C@H](C)[C@H](N)C(=O)OC`, the inhibition is under 15%.

`COC(=O)[C@@H](N)CCCCN`: the inhibition was under 15%.

On to `CC(C)C[C@H](NC(=O)CNC(=O)CN)C(=O)O`, for which the inhibition was under 15%.

For `CC(C)[C@H](N)C(=O)N[C@H](C(=O)N[C@@H](C(=O)O)C(C)C)C(C)C` (H-Val-Val-[dV]-OH), the inhibition was under 15%.

The molecule `CC(C)C[C@H](N)C(=O)NCC(=O)N1CCC[C@H]1C(=O)O` (H-Leu-Gly-Pro-OH) had an inhibition of under 15%.

For the molecule `CN[C@@H](CC(C)C)C(=O)N[C@@H](CC(C)C)C(=O)O`, the inhibition was 15%.

In the case of `N[C@@H](CC(=O)O)C(=O)N[C@@H](CO)C(=O)O` (H-Asp-Ser-OH), the inhibition was under 15%.

`CC(=O)NC(Cc1ccc(Br)cc1)C(=O)O` (racemic) showed an inhibition of 15%.

With `CCOC(=O)[C@@H](N)CCSC`, the inhibition is under 15%.

`CC(C)(C)OC(=O)N[C@@H](CO)C(=O)O` gave an inhibition of under 15%.

For `CC(C)(C)OC(=O)NC(Cc1ccc(O)cc1)C(=O)O` (stereo in doubt), the inhibition is under 15%.

Take `CCOC(=O)[C@@H](N)Cc1ccccc1`: the inhibition was under 15%.

`CC(N)(Cc1ccccc1)C(=O)O` (configuration not stated): the inhibition is under 15%.

For `COC(=O)[C@@H](N)CO`, the inhibition is under 15%.

`CC[C@H](C)[C@H](N)C(=O)N[C@@H](CC(C)C)C(=O)N[C@@H](CC(C)C)C(=O)O` (H-Ile-Leu-Leu-OH) returned an inhibition of over 30%.

In the case of `CC(C)C[C@@H](N)C(=O)NCC(=O)NCC(=O)O` (H-[dL]-Gly-Gly-OH), the inhibition is under 15%.

As to `CN(CC(=O)O)C(=O)CNC(=O)CN` (H-Gly-Gly-[Sar]-OH), the inhibition is under 15%.

Molecule `CSCC[C@H](N)C(=O)N[C@@H](CCCNC(=N)N)C(=O)N[C@@H](Cc1ccccc1)C(=O)O` (H-Met-Arg-Phe-OH) registered an inhibition of 15%.

Take `NCC(=O)N[C@@H](CC(=O)O)C(=O)O` (H-Gly-Asp-OH): the inhibition was under 15%.

The molecule `NCCS(=O)(=O)O` came in with an inhibition of under 15%.

As for `C[C@H](N)C(=O)N[C@@H](CCC(=O)O)C(N)=O` (H-Ala-Glu-NH2), the inhibition is under 15%.

As for `CSCCC(NC(=O)C(C)N)C(=O)O` (racemic), the inhibition was under 15%.

For `COC(=O)[C@@H](N)CCSC`, the inhibition was under 15%.

For `N[C@H]1CSSC[C@@H](C(=O)O)NC1=O`, the inhibition amounted to 15%.

`COC(=O)[C@@H]1C[C@@H](O)CN1` displayed an inhibition of under 15%.

Turning to `CC(C)(C)OC(=O)[C@@H](N)Cc1ccccc1`, the inhibition is under 15%.

For the molecule `C[C@H](N)C(=O)NCC(=O)O` (racemic), the inhibition is over 30%.

In turn, `CC(=O)N[C@@H](COC(C)(C)C)C(=O)O` returned an inhibition of under 15%.

For `CSCC[C@H](NC(=O)[C@H](CC(C)C)NC(=O)CN)C(=O)O` (H-Gly-Leu-Met-OH), the inhibition is under 15%.

In turn, `C[C@@H](O)C(NC(=O)CN)C(=O)O` (mixture of isomers) gave an inhibition of 15%.

In turn, `CC(C)C[C@H](N)C(=O)N[C@@H](Cc1ccc(O)cc1)C(=O)O` registered an inhibition of over 30%.

In turn, `NCC(=O)N[C@@H](Cc1cnc[nH]1)C(=O)O` (H-Gly-His-OH) had an inhibition of under 15%.

In turn, `CC(C)C[C@H](NC(=O)[C@H](Cc1cnc[nH]1)NC(=O)CN)C(N)=O` (H-Gly-His-Leu-NH2) returned an inhibition of under 15%.

With `N[C@@H](Cc1ccc(O)cc1)C(=O)NCC(=O)O`, the inhibition is under 15%.

Turning to `C[C@@H](O)[C@H](NC(=O)[C@H](CCCCN)NC(=O)[C@@H](N)Cc1ccc(O)cc1)C(=O)O` (H-Tyr-Lys-Thr-OH), the inhibition is under 15%.

As to `CC(C)C[C@H](NC(=O)CCN)C(=O)O`, the inhibition is under 15%.

For the molecule `N[C@@H](CCC(=O)O)C(=O)N[C@@H](CCC(=O)O)C(=O)O` (H-Glu-Glu-OH), the inhibition is under 15%.

Regarding `NCCC(N)=O`, the inhibition is under 15%.

Turning to `C[C@@H](NC(=O)[C@@H](N)CCC(=O)O)C(=O)O`, the inhibition is under 15%.

In the case of `C[C@H](N)C(=O)N[C@@H](CO)C(=O)O` (H-Ala-Ser-OH), the inhibition is over 30%.

The molecule `NCC(=O)NCCCC(=O)O` gave an inhibition of under 15%.

Take `COC(=O)CC[C@H](N)C(=O)OC`: the inhibition was under 15%.

Take `CC(C)C[C@H](NC(=O)[C@@H](N)CC(C)C)C(=O)N[C@@H](CCC(=O)O)C(=O)O` (H-Leu-Leu-Glu-OH): the inhibition amounted to 15%.

`COC(=O)[C@@H](N)C(C)C` had an inhibition of under 15%.

`CC(=O)NCC(=O)N[C@@H](Cc1cnc[nH]1)C(=O)N[C@@H](CCCCN)C(=O)O` (Ac-Gly-His-Lys-OH) returned an inhibition of under 15%.

Molecule `CC(=O)NCCCC[C@H](NC(C)=O)C(=O)O` had an inhibition of under 15%.

The molecule `NCC(=O)NCC(=O)O` (H-Gly-Gly-OH) gave an inhibition of under 15%.

As for `NCC(=O)NCC(=O)N[C@@H](CCC(=O)O)C(=O)O` (H-Gly-Gly-Glu-OH), the inhibition was under 15%.

Regarding `NCC(=O)N[C@@H](Cc1ccccc1)C(N)=O` (H-Gly-Phe-NH2), the inhibition is 15%.

For the molecule `CC(C)C[C@@H](N)C(=O)N[C@@H](CC(C)C)C(=O)O`, the inhibition is under 15%.

The molecule `CC(=O)N[C@@H](CCC(=O)OC(C)(C)C)C(=O)O` came in with an inhibition of under 15%.

Regarding `O=C(O)[C@@H]1CNCCN1`, the inhibition is under 15%.

`NCC(=O)NCC(=O)N[C@@H](Cc1ccccc1)C(=O)O` (H-Gly-Gly-Phe-OH): the inhibition is under 15%.

As to `CC(C)C[C@H](NC(=O)OC(C)(C)C)C(=O)O`, the inhibition is under 15%.

Regarding `CC[C@H](C)[C@H](N)C(=O)N[C@@H](CC(C)C)C(=O)O` (H-Ile-Leu-OH), the inhibition was over 30%.

In turn, `CC(C)[C@H](NC(=O)CNC(=O)CN)C(=O)O` (H-Gly-Gly-Val-OH) came in with an inhibition of under 15%.

In turn, `CC(C)C[C@H](NC(=O)[C@@H](N)CC(C)C)C(=O)NCCC(=O)O` (H-Leu-Leu-[βAla]-OH) gave an inhibition of over 30%.

The molecule `CC(=O)N1CCC[C@H]1C(=O)N[C@@H](Cc1ccccc1)C(=O)N[C@@H](CCCNC(=N)N)C(=O)O` (Ac-Pro-Phe-Arg-OH) had an inhibition of under 15%.

Molecule `CSCC[C@H](NC(=O)OC(C)(C)C)C(=O)O` came in with an inhibition of under 15%.

For `COC(=O)[C@@H](N)CC(C)C`, the inhibition is under 15%.

On to `C[C@@H](NC(=O)CN)C(=O)O` (H-Gly-[dA]-OH), for which the inhibition was under 15%.

Molecule `CSCC[C@H](NC(=O)[C@@H](N)Cc1cnc[nH]1)C(=O)O` (H-His-Met-OH) showed an inhibition of 15%.

In the case of `N[C@@H](Cc1c[nH]cn1)C(=O)N[C@@H](CO)C(=O)O` (H-His-Ser-OH), the inhibition was under 15%.

As for `CSCC[C@H](NC(=O)CN)C(=O)NCC(=O)O` (H-Gly-Met-Gly-OH), the inhibition is under 15%.

The molecule `NC(=O)[C@@H](N)CO` came in with an inhibition of under 15%.

In turn, `CC[C@H](C)[C@H](NC(=O)OCc1ccccc1)C(=O)O` came in with an inhibition of 15%.

Regarding `CN[C@@H](CC(C)C)C(=O)NCC(=O)O` (H-[NMeL]-Gly-OH), the inhibition is under 15%.

With `CC(C)C[C@H](NC(=O)CN)C(=O)N1C[C@H](O)C[C@H]1C(=O)O` (H-Gly-Leu-[Hyp]-OH), the inhibition is under 15%.

In turn, `CSCC[C@H](N)C(=O)N[C@@H](CC(C)C)C(=O)O` (H-Met-Leu-OH) showed an inhibition of under 15%.

The molecule `N[C@@H](Cc1cnc[nH]1)C(=O)N[C@@H](CCC(=O)O)C(=O)O` (H-His-Glu-OH) came in with an inhibition of under 15%.

On to `CC(C)[C@H](NC(=O)[C@@H](N)Cc1ccccc1)C(=O)O` (H-Phe-Val-OH), for which the inhibition is under 15%.

Turning to `CC(C)C[C@H](NC(=O)CNC(=O)[C@@H](N)CC(C)C)C(=O)O` (H-Leu-Gly-Leu-OH), the inhibition was under 15%.

With `CC(C)C[C@H](NC(=O)[C@@H](N)CCC(=O)O)C(=O)O` (H-Glu-Leu-OH), the inhibition is under 15%.

In turn, `CSCC[C@@H](N)C(=O)NCC(=O)O` (H-[dM]-Gly-OH) gave an inhibition of under 15%.

With `CC(C)C[C@H](NC(=O)[C@@H](N)CC(C)C)C(=O)O`, the inhibition is under 15%.

Consider `N[C@@H](Cc1cnc[nH]1)C(=O)NCCS(=O)(=O)O`, for which the inhibition was under 15%.

Molecule `NC(=O)[C@@H](N)Cc1c[nH]c2ccccc12` gave an inhibition of under 15%.

With `CSCC[C@H](N)C(=O)N[C@@H](C)C(=O)N[C@@H](CO)C(=O)O` (H-Met-Ala-Ser-OH), the inhibition was under 15%.

For the molecule `CN[C@@H](CC(=O)O)C(=O)N[C@@H](Cc1ccccc1)C(N)=O` (H-[NMeD]-Phe-NH2), the inhibition was under 15%.

As to `CC(C)C[C@H](NC(=O)[C@@H](N)[C@@H](C)O)C(=O)O` (H-Thr-Leu-OH), the inhibition is under 15%.

As to `CC(C)C[C@H](NC(=O)[C@H](CC(C)C)NC(=O)[C@@H](N)C(C)C)C(=O)O` (H-Val-Leu-Leu-OH), the inhibition was under 15%.
